According to patent publication US20260258039A1, “AROMATIC COMPOUND, METHOD FOR PREPARING SAME, AND USE THEREOF IN PREPARATION OF ESTROGEN RECEPTOR DEGRADER” (Hinova Pharmaceuticals Inc., priority 2022, published 2026):
Read-outs that look alike come from different tables or passages of the source.

Biological target: T1, ER (Homo sapiens, UniProt P03372)
T1 construct: T47D breast cancer cells were subcultured in cell culture medium; endogenous in cells; host or cells: T47D breast cancer cells
T1 sequence (P03372 1-595): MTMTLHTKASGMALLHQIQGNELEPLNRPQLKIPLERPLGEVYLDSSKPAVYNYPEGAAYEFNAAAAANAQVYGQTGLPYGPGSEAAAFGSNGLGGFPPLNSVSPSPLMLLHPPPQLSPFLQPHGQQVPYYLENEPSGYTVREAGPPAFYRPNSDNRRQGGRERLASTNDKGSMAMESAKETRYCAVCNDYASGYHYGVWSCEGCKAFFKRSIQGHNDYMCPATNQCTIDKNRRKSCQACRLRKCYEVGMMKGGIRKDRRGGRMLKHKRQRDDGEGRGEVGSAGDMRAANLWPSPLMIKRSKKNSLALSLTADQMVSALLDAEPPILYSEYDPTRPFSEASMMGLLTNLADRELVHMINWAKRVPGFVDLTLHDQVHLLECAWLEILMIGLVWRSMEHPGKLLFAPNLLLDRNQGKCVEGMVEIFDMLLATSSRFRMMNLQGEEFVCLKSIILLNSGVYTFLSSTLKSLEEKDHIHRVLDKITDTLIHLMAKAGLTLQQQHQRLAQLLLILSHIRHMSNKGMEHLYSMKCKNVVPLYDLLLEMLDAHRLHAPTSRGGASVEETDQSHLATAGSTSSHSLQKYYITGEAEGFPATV
Assay: Degradation activities on ER (ELISA) in T47D breast cancer cells
Format: cell-based
Settings: T47D cells, 24 h, ELISA; for DC50: concentration required to degrade 50% of the target protein; for Dmax: maximum percentage of target protein degraded
Method: T47D breast cancer cells were subcultured in cell culture medium, and then the cells in good growth condition were seeded into 96-well plates at 80 µL/well, with 2.5×10^4 cells per well. The cells were incubated in a 37° C., 5% CO2 incubator for 3 days. The drug was prepared into a 10 mM stock solution with dimethyl sulfoxide (DMSO). Prior to use, the stock solution was diluted with cell culture medium to obtain six final concentrations (100 nM, 25 nM, 6.25 nM, 1.56 nM, 0.39 nM, and […]), and gently mixed. Additionally, negative control wells (only containing culture medium) and positive control wells (only containing cells and DMSO) were included. After the cells were incubated in the incubator for 24 h, the cells were rinsed once with ice-cold 1×PBS. […] The plate was sealed with plastic film, and incubated in a 37° C. incubator for 2 h. The film was removed. 200 μL of 1× washing buffer was added to each well, and then the plate was shaken for 5 min. The washing buffer was discarded, and the plate was pat-dried. The plate was washed four times. 100 μL of freshly prepared detection antibody (green) was added to each well of the ELISA plate. The plate was sealed with plastic film, and then incubated in a 37° C. incubator for 1 h. The film was removed, and the detection antibody was discarded. The plate was pat-dried. 200 μL of 1× washing buffer was added to each well, and then the plate was shaken for 5 min. The washing buffer was discarded, and the plate was pat-dried. The plate was washed four times. 100 μL of freshly prepared HRP-labeled secondary antibody (red) was added to each well of the ELISA plate. The plate was sealed with plastic film, and incubated in a 37° C. incubator for 30 min. The film was removed, the secondary antibody was discarded, and the plate was pat-dried, followed by adding 200 μL of 1× washing buffer to each well. The plate was shaken for 5 min, and the washing buffer was discarded before pat-drying the plate. The plate was washed four times. 100 μl of TMB substrate was added to each well of the ELISA plate, followed by incubating in a 37° C. incubator for 5 min. 100 μL of STOP solution was added to each well of the ELISA plate, and the plate was gently shaken for a few seconds. The bottom of each well was wiped with lint-free cloth. Within 30 min after adding the STOP solution, the absorbance was read at 450 nm. […] The data were analyzed using the Dose-response equation in GraphPad Prism8 software to obtain the DC50 and Dmax values, and both of them are important indicators for measuring the degradation activities of compounds on target proteins. […] The Dmax value represents the maximum percentage of target protein that can be degraded by the compound.

Row | Structure (SMILES) | DC50 [nM] | Dmax (read-out: Dmax) [%] | Dmax
1 | O=C1CCC(N2Cc3cc(N4CC5(CCN(CC6CCN(c7ccc([C@@H]8c9ccc(O)cc9OC[C@@H]8c8ccc(F)cc8F)cc7)CC6)CC5)C4)ccc3C2=O)C(=O)N1 (stereo partly drawn) [Example 46, 3-(5-(7-((1-(4-(cis-3-(2,4-difluorophenyl)-7-hydroxychroman-4-yl)phenyl)piperidin-4-yl)methyl)-2,7-diazaspiro[3.5]nonane-2-yl)-1-oxoisoinodolin-2-yl)piperidin-2,6-dione] | 10 to 50 | 50 to 75 | 
2 | O=C1CCC(N2Cc3cc(N4CC5(CCN(CC6CCN(c7c(F)cc([C@@H]8c9ccc(OCc%10ccccc%10)cc9OC[C@@H]8c8ccccc8F)cc7F)CC6)CC5)C4)ccc3C2=O)C(=O)N1 (stereo partly drawn) [Example 51, 3-(5-(7-((1-(4-(cis-7-(benzyloxy)-3-(2-fluorophenyl)chroman-4-yl)-2,6-difluorophenyl)piperidin-4-yl)methyl)-2,7-diazaspiro[3.5]nonane-2-yl)-1-oxoisoinodolin-2-yl)piperidin-2,6-one] | > 100 | < 50 | 
3 | O=C1CCC(N2Cc3cc(N4CC5(CCN(CC6CCN(c7c(F)cc([C@H]8c9ccc(O)cc9OC[C@H]8c8cccc(F)c8F)cc7F)CC6)CC5)C4)ccc3C2=O)C(=O)N1 (stereo partly drawn) [Example 39, 3-(5-(7-((1-(4-((3R,4S)-3-(2,3-difluorophenyl)-7-hydroxychroman-4-yl)-2,6-difluorophenyl)piperidin-4-yl)methyl)-2,7-diazaspiro[3.5]nonane-2-yl)-1-oxoisoinodolin-2-yl)piperidin-2,6-one] | > 100 | < 50 | 
4 | O=C1CCC(N2Cc3cc(N4CC5(CCN(CC6CCN(c7c(F)cc([C@@H]8c9ccc(O)cc9OC[C@@H]8c8cccc(F)c8F)cc7F)CC6)CC5)C4)ccc3C2=O)C(=O)N1 (stereo partly drawn) [Example 48, 3-(5-(7-((1-(2,6-difluoro-4-(cis-3-(2,3-difluorophenyl)-7-hydroxychroman-4-yl)phenyl)piperidin-4-yl)methyl)-2,7-diazaspiro[3.5]nonane-2-yl)-1-oxoisoinodolin-2-yl)piperidin-2,6-dione] | < 10 | 50 to 75 | 
5 | O=C1CCC(N2Cc3cc(N4CC5(CCN(CC6CCN(c7ccc([C@@H]8c9ccc(O)cc9OC[C@@H]8CC(F)(F)F)cc7)CC6)CC5)C4)ccc3C2=O)C(=O)N1 (stereo partly drawn) [Example 92, 3-(5-(7-((1-(4-(cis-7-hydroxyl-3-(2,2,2-trifluoroethyl)chroman-4-yl)phenyl)piperidin-4-yl)methyl)-2,7-diazaspiro[3.5]nonane-2-yl)-1-oxoisoinodolin-2-yl)piperidin-2,6-dione] | 10 to 50 | 50 to 75 | 
6 | O=C1CCC(N2Cc3cc(N4CC5(CCN(CC6CCN(c7ccc([C@@H]8c9ccc(O)cc9OC[C@@H]8c8cc(F)ccc8F)cc7)CC6)CC5)C4)ccc3C2=O)C(=O)N1 (stereo partly drawn) [Example 47, 3-(5-(7-((1-(4-(cis-3-(2,5-difluorophenyl)-7-hydroxychroman-4-yl)phenyl)piperidin-4-yl)methyl)-2,7-diazaspiro[3.5]nonane-2-yl)-1-oxoisoinodolin-2-yl)piperidin-2,6-dione] | 10 to 50 | 50 to 75 | 
7 | O=C1CCC(N2Cc3cc(N4CC5(CCN(CC6CCN(c7c(F)cc([C@H]8c9ccc(O)cc9OC[C@H]8c8c(F)cccc8F)cc7F)CC6)CC5)C4)ccc3C2=O)C(=O)N1 (some centres unmarked) [Example 41] | > 100 | < 50 | 
8 | O=C1CCC(N2Cc3cc(N4CC5(CCN(CC6CCN(c7c(F)cc(C8=C(c9c(F)cccc9F)COc9cc(OCc%10ccccc%10)ccc98)cc7F)CC6)CC5)C4)ccc3C2=O)C(=O)N1 (centres unmarked) [Example 43] | > 100 | < 50 | 

Now from value to compound:

Row | DC50 [nM] | Dmax (read-out: Dmax) [%] | Dmax | Structure (SMILES)
9 | > 100 | < 50 |  | O=C1CCC(N2Cc3cc(N4CCC(N5CC6(CCN(c7ccc([C@H]8c9ccc(O)cc9CC[C@H]8c8ccccc8F)cc7)CC6)C5)CC4)ccc3C2=O)C(=O)N1 (stereo partly drawn) [Example 21, 3-(5-(4-(7-(4-((1S,2R)-2-(2-fluorophenyl)-6-hydroxyl-1,2,3,4-tetrahydronaphthalen-1-yl)phenyl)-2,7-diazaspiro[3.5]nonane-2-yl)piperidin-1-yl)-1-oxoisoinodolin-2-yl)piperidin-2,6-dione]
10 | < 10 |  |  | O=C1CCC(N2Cc3cc(N4CCC(N5CC6(CCN(c7ccc([C@@H]8c9ccc(O)cc9OC[C@@H]8c8ccccc8F)cc7)CC6)C5)CC4)ccc3C2=O)C(=O)N1 (stereo partly drawn) [Example 20, 3-(5-(4-(7-(4-(cis-3-(2-fluorophenyl)-7-hydroxychroman-4-yl)phenyl)-2,7-diazaspiro[3.5]nonane-2-yl)piperidin-1-yl)-1-oxoisoinodolin-2-yl)piperidin-2,6-dione]
11 | > 100 | < 50 |  | O=C1CCC(N2Cc3cc(N4CC5(CCN(CC6CCN(c7ccc([C@H]8c9ccc(O)cc9OC[C@H]8c8c(F)cccc8F)cc7F)CC6)CC5)C4)ccc3C2=O)C(=O)N1 (stereo partly drawn) [Example 71, 3-(5-(7-((1-(4-((3R,4S)-3-(2,6-difluorophenyl)-7-hydroxychroman-4-yl)-2-fluorophenyl)piperidin-4-yl)methyl)-2,7-diazaspiro[3.5]nonane-2-yl)-1-oxoisoinodolin-2-yl)piperidin-2,6-dione]
12 | 10 to 50 | > 75 |  | O=C1CCC(N2Cc3cc(N4CCC(N5CC6(CCN(c7ccc([C@@H]8c9ccc(O)cc9OC[C@@H]8c8ccccc8)cc7F)CC6)C5)CC4)ccc3C2=O)C(=O)N1 (stereo partly drawn) [Example 23, 3-(5-(4-(7-(4-(cis-3-(2-fluorophenyl)-7-hydroxychroman-4-yl)phenyl)-2,7-diazaspiro[3.5]nonane-2-yl)piperidin-1-yl)-1-oxoisoinodolin-2-yl)piperidin-2,6-dione]
13 | < 10 | 50 to 75 |  | O=C1CCC(N2Cc3cc(N4CC5(CCN(CC6CCN(c7ccc([C@@H]8c9ccc(O)cc9OC[C@@H]8c8cccc(F)c8F)cc7)CC6)CC5)C4)ccc3C2=O)C(=O)N1 (relative stereo) [Example 36, 3-(5-(7-((1-(4-(cis-3-(2,3-difluorophenyl)-7-hydroxychroman-4-yl)phenyl)piperidin-4-yl)methyl)-2,7-diazaspiro[3.5]nonane-2-yl)-1-oxoisoindol-2-yl)piperidin-2,6-dione]
14 |  |  | B (B: 75-50%) | O=C1CCC(N2Cc3cc(N4CC5(CCN(CC6CCN(c7ccc([C@@H]8c9ccc(O)cc9OC[C@@H]8c8c(F)cccc8F)cc7)CC6)CC5)C4)ccc3C2=O)C(=O)N1 (stereo partly drawn) [Example 77, 3-(5-(7-((1-(4-((3S,4R)-3-(2,6-difluorophenyl)-7-hydroxychroman-4-yl)phenyl)piperidin-4-yl)methyl)-2,7-diazaspiro[3.5]nonane-2-yl)-1-oxoisoinodolin-2-yl)piperidin-2,6-dione]
